The test system of assay [1] is fourth-stage larvae (L4s) of H. contortus. Briefly: L4 motility assay. Format: cell-based. The method, then: The selenophene and thiophene-core ligands (n = 74) (Additional file 1) were screened at a concentration of 20 μM on exsheathed third-stage larvae (xL3s) of H. contortus in 96-well microculture plates (cat. no. 3635; Corning 3650, Life Sciences, Corning, USA) using relevant control compounds (i.e. moxidectin and monepantel), as described previously. In brief, compounds were dissolved to a stock concentration of 10 mM in either dimethyl sulfoxide (DMSO) or methanol (Sigma-Adrich Scientific, St. Louis, USA). These ligands were then individually diluted to the final concentration of 20 μM using Luria Bertani medium (LB) supplemented with 100 IU/ml of penicillin, 100 μg/ml of streptomycin and 2.5 μg/ml of amphotericin (LB*). Compounds were dispensed (in triplicate) into the wells of a 96-well microculture plate using a multichannel pipette. In addition, the negative controls (LB*, LB* + 0.5 % solvent; six wells each), and positive controls (20 μM of monepantel; Zolvix, Novartis Animal Health, Basel, Switzerland and 20 μM of moxidectin; Cydectin, Virbac, Carros, France; triplicate wells) and xL3s (~300/well) were dispensed into wells of the plate using an automated multichannel pipette (Viaflo Assist/II, Integra Biosciences, Zizers, Switzerland). […], a video recording (5 s) was taken of each well of the 96-well microculture plate (containing xL3s) using a greyscale camera (Rolera Bolt CMOS, Qimaging Scientific, Surrey, Canada) and a motorised X-Y axis stage (BioPoint 2, Ludl Electronics Products, Hawthorne, USA). Individual videos were processed to calculate a motility index (MI) using an algorithm described previously. MIs were normalised to the negative and positive controls (to remove plate-to-plate variation) using the program Prism (v.6 GraphPad Software, USA). Z’-scores were calculated to validate the performance of the screening assay; reliable assays achieve Z’-scores of between 0.5 and 1 [28]. […] Compounds that reduced the motility of xL3s were also tested for their ability to inhibit the motility of L4s (same protocol as for xL3s) and/or to affect the development of xL3s to L4s. Following the measurement of L4 motility, larvae were re-incubated for 4 more days and fixed with 1 % iodine (50 μl). Then, L4 development was assessed based on the presence of a well-developed mouth/pharynx using a light microscope and expressed as a percentage of the total number of larvae examined (n = 30).
All assays (to assess xL3 motility, L4 development and L4 motility) were performed in triplicate, three times, on separate days.

A further assay concerns L4 stage of H. contortus. Briefly: Scanning electron microscopy of treated L4s. Format: cell-based, Haemonchus contortus. Conditions: 100 μM, 24 h. The method, then:
SEM was used to assess whether compounds that reduced motility by ≥ 70 % caused structural damage to the larval stages. The xL3s and L4s were cultivated as described previously. Compounds were diluted to a final concentration of 100 μM in LB*, and 50 μl were transferred to wells of a 96-well microculture plate; six wells were used for each treatment and for the negative control which contained LB* and 1 % methanol (AR1115-P2.5 L, RCI; Labscan Limited). The xL3s and L4s were resuspended in LB* at a density of ~6,000 per ml, and 50 μl were transferred into individual wells. Compounds were incubated with the larvae for 24 h at 38 °C and 10 % CO2. Following incubation, for each treatment, the larvae from each of the six wells were pooled into 1.5 ml Eppendorf tubes, washed 3 times in 0.9 % saline at 9,000 g and resuspended in 1 ml of phosphate-buffered saline (PBS). Subsequently, the larvae were fixed in 2.5 % glutaraldehyde in PBS for 2 h at room temperature, rinsed three times in PBS for 15 min, and then post-fixed in 1 % osmium tetroxide for 2 h at room temperature. Fixed larvae were rinsed again 3 times in PBS for 15 min. Then, aliquots of concentrated larvae (200 μl) were incubated on polyethyleneimine (PEI)-coated glass coverslips (pre-prepared by smearing 22 mm square glass coverslips with a 0.1 % solution of PEI and dried by heat under a cool flame). Following this incubation, the excess supernatant was removed, and the coverslips with adhered nematodes were dehydrated in increasing concentrations of ethanol (10, 30, 50, 70, 90 and 100 %) in water for 30 min. The coverslips were dried in a critical point dryer (EM CPD030, Leica, Wetzlar, Germany) and mounted on to aluminium stubs (25 mm) with double-sided carbon tabs. The coverslips were then coated with gold using a Xenosput sputter coater (Dynavac, Australia). The larvae on the coverslips were imaged using a field-emission scanning electron microscope (XL30 Philips, Netherlands) at 2.0 kV using a spot size of two; 12 representative images were taken of each sample.

The mark [2] stands for this setting: Haemonchus contortus, 24 h; read-out: L4 motility (IC50s in μM).
Setting [3] is: Haemonchus contortus, 48 h; read-out: L4 motility (IC50s in μM).
[4] abbreviates: Haemonchus contortus, 72 h; read-out: L4 motility (IC50s in μM).

Where two headings read alike, the source gives them in different places.

`Oc1ccc(-c2cscc2-c2ccc(O)cc2Cl)c(Cl)c1` [MJ-17]: the IC50 in assay [1] (setting [2]) is 13.9 µM; in assay [1] (setting [3]), 6.2 µM; in assay [1] (setting [4]), 6.1 µM; in assay [1] (Haemonchus contortus; read-out: L4 motility IC50 at both 48 h and 72 h) it was 6.1 to 6.2 µM. In addition, the “cuticle damage of L4s by SEM” value with L4 stage of H. contortus is “distinct damage”.

For `Cc1cc(O)ccc1-c1ccc(-c2ccc(O)cc2F)s1` [MJ-22], the results for the IC50 in assay [1] (setting [2]), in assay [1] (setting [3]) and in assay [1] (setting [4]) were 6.4 µM, 3.2 µM and 6.2 µM, respectively. The “cuticle damage of L4s by SEM” value in the assay with L4 stage of H. contortus is “distinct damage”.

Take `C[C@](C#N)(COc1cc(C#N)ccc1C(F)(F)F)NC(=O)c1ccc(SC(F)(F)F)cc1` [Monepantel, reference compound]: the IC50 in assay [1] (setting [2]) amounted to 4.3 µM; in assay [1] (setting [3]), 2.2 µM; in assay [1] (setting [4]), 3 µM. The “cuticle damage of L4s by SEM” value in the assay with L4 stage of H. contortus is reported as “cuticle damage”.

As to `CO/N=C1\C[C@]2(C[C@@H]3C[C@@H](C/C=C(\C)C[C@@H](C)/C=C/C=C4\CO[C@@H]5[C@H](O)C(C)=C[C@@H](C(=O)O3)[C@]45O)O2)O[C@H](/C(C)=C/C(C)C)[C@H]1C` [Moxidectin, reference compound], the results for the IC50 in assay [1] (setting [2]), in assay [1] (setting [3]) and in assay [1] (setting [4]) were 2.2 µM, 0.6 µM and 0.0045 µM, respectively. Also, the “cuticle damage of L4s by SEM” value with L4 stage of H. contortus is “did not induce any cuticle damage”.

Turning to `Oc1ccc(-c2ccc(-c3ccc(O)cc3Cl)[se]2)c(Cl)c1` [WZY-2], the IC50 in assay [1] (Haemonchus contortus, 24 h, read-out: L4 motility (IC50s in μM)) was found to be 9.3 µM; in assay [1] (Haemonchus contortus, 48 h, read-out: L4 motility (IC50s in μM)), 6.1 µM; in assay [1] (Haemonchus contortus, 72 h, read-out: L4 motility (IC50s in μM)) it was 6.2 µM. For the same molecule, the “cuticle damage of L4s by SEM” value with L4 stage of H. contortus is reported as “distinct damage”.
